Results published in US20230274799A1, “SYSTEMS AND METHODS FOR PATIENT STRATIFICATION AND IDENTIFICATION OF POTENTIAL BIOMARKERS” (Berg LLC, priority 2016, published 2023).

Key:
Assay type in all cases: in vivo, human
[1] = Pharmacokinetics of Coenzyme Q10 in plasma during and after 144-hour continuous IV infusion; design: Coenzyme Q10 concentration in plasma, Mean ± SD: unit not given here
Procedure: Pharmacokinetics of Coenzyme Q10 was measured in the patients at time zero and at several time points during and after the 144-hour continuous intravenous (IV) infusion with Coenzyme Q10.

[2] = Phase I dose-escalation trial, dose limiting toxicities of Coenzyme Q10 in combination with chemotherapy (Arm 2)
Description: The clinical trial is a multicenter, open-label, non-randomized, dose-escalation study to examine the dose limiting toxicities (DLT) of Coenzyme Q10 administered as a 144-hour continuous intravenous (IV) infusion as monotherapy (treatment Arm 1) and in combination with chemotherapy (treatment Arm 2) in patients with solid tumors. A broad range of solid tumors has been evaluated, including prostate, colon, breast, lung and pancreatic tumors, as shown in Tables 1 and 2 below. Coenzyme Q10 was administered in three consecutive 48 hour doses or two consecutive 72 hour doses, depending on the dose level. Three standard weekly chemotherapy regimens of gemcitabine, 5-fluorouracil, or docetaxel were evaluated in combination with Coenzyme Q10. Eligible patients are 18 years of age or older, afflicted with solid tumors, and relapsed/refractory to standard therapy. 85 patients have been enrolled in the trial. The monotherapy arm received Coenzyme Q10 for 6 days in continuous infusion in 28 day cycles, and the combination arms (gemcitabine, 5-fluorouracil, or docetaxel) were primed for 3 weeks with Coenzyme Q10 before initiation of standard chemotherapy, followed by weekly dosing in a 6 week cycle.
The study is a standard 3+3 dose escalation design with the dose escalated in successive cohorts of 3 to 6 patients each. […]

solid tumors = experiment: Tumor response evaluation in Phase I trial; conditions: Sixteen of 66 patients
Procedure: Tumor response was evaluated at week 2 and then after every 2 cycles. Sixteen of 66 patients (24%) maintained a minimum of Stable Disease for >4 cycles. Tumor response data was used to stratify the patients into “overall clinical benefit” or “no clinical benefit” groups.

[3] = Phase I trial, adverse events (CTCAE v4.02)
Description: The study is a standard 3+3 dose escalation design with the dose escalated in successive cohorts of 3 to 6 patients each. Toxicity at each dose level is graded according to National Cancer Institute Common Terminology Criteria for Adverse Events (CTCAE v4.02). Safety oversight is provided by the Cohort Review Committee (CRC). If none of the 3 patients in a cohort experiences a DLT during Cycle 1, then 3 new patients may be entered at the next higher dose level following CRC review of safety and PK data from lower cohorts. The clinical trial is described in greater detail in WO2015/035094, which is incorporated by reference herein in its entirety.
Four grade 3 events were reported. During the time period covered by Example 1, 1503 adverse events were reported. 75 events were reported as serious. Of the serious adverse events, 27 were not related, 38 were unlikely related, 8 were possibly related, one was probably related and, one was definitely related (activated partial thromboplastin time (APTT) prolonged).
The table below contains the adverse events reported with a frequency of 4% or greater.

[4] = Grade 2, 3*, adverse events with frequency of 4% or greater
[5] = time period covered by Example 1

Which “Coenzyme Q10 concentration in plasma, Mean ± SD” value ([1]; 274 mg/kg/week, Arm 1, n = 6, time 143.5 hr) does the source give for `COC1=C(OC)C(=O)C(C/C=C(\C)CC/C=C(\C)CC/C=C(\C)CC/C=C(\C)CC/C=C(\C)CC/C=C(\C)CC/C=C(\C)CC/C=C(\C)CC/C=C(\C)CCC=C(C)C)=C(C)C1=O` [Coenzyme Q10] here?
Its value is 560 ± 246.

And the “Coenzyme Q10 concentration in plasma, Mean ± SD” value ([1]; 342 mg/kg/week, Arm 1, n = 4 (footnote e), time 96 hr)?
Its value is 411 ± 189^e.

What about the “Coenzyme Q10 concentration in plasma, Mean ± SD” value ([1]; 342 mg/kg/week, Arm 1, n = 4 (footnote e), time 140 hr) of the same molecule?
Its value is 695 ± 414^e.

And the “Coenzyme Q10 concentration in plasma, Mean ± SD” value ([1]; 342 mg/kg/week, Arm 1, n = 4 (footnote e), time 143.5 hr)?
The value was 789 ± 161^e.

What about the “Coenzyme Q10 concentration in plasma, Mean ± SD” value ([1]; 342 mg/kg/week, Arm 1, n = 4 (footnote e), time 146 hr) of the same molecule?
Its value is 679 ± 141^e.

What about the “Coenzyme Q10 concentration in plasma, Mean ± SD” value ([1]; 342 mg/kg/week, Arm 1, n = 4 (footnote e), time 148 hr) of the same molecule?
The value was 596 ± 143^e.

What about the “Coenzyme Q10 concentration in plasma, Mean ± SD” value ([1]; 342 mg/kg/week, Arm 1, n = 5, time 0 hr) of the same molecule?
The value was 0.

And the “Coenzyme Q10 concentration in plasma, Mean ± SD” value ([1]; 342 mg/kg/week, Arm 1, n = 5, time 1 hr)?
The value was 289 ± 59.

What about the “Coenzyme Q10 concentration in plasma, Mean ± SD” value ([1]; 342 mg/kg/week, Arm 1, n = 5, time 2 hr) of the same molecule?
Its value is 297 ± 81.

What about the “Coenzyme Q10 concentration in plasma, Mean ± SD” value ([1]; 342 mg/kg/week, Arm 1, n = 5, time 4 hr) of the same molecule?
Its value is 304 ± 90.

And the “Coenzyme Q10 concentration in plasma, Mean ± SD” value ([1]; 342 mg/kg/week, Arm 1, n = 5, time 24 hr)?
The value was 463 ± 274.

And the “Coenzyme Q10 concentration in plasma, Mean ± SD” value ([1]; 342 mg/kg/week, Arm 1, n = 5, time 71.5 hr)?
Its value is 563 ± 188.

What about the “Coenzyme Q10 concentration in plasma, Mean ± SD” value ([1]; 342 mg/kg/week, Arm 1, n = 5, time 73 hr) of the same molecule?
Its value is 514 ± 205.

And the “Coenzyme Q10 concentration in plasma, Mean ± SD” value ([1]; 342 mg/kg/week, Arm 1, n = 5, time 74 hr)?
Its value is 537 ± 219.

What about the “Coenzyme Q10 concentration in plasma, Mean ± SD” value ([1]; 342 mg/kg/week, Arm 1, n = 5, time 142 hr) of the same molecule?
Its value is 699 ± 290.

What about the “Mean plasma concentrations of Coenzyme Q10, comparison of doses” value ([1]; Arm 1 (monotherapy), exception: 96-hour sampling time, similar) of the same molecule?
Its value is “higher for the 342 mg/kg/week dose than for the 274 mg/kg/week dose”.

And the “Effect of concomitant chemotherapy on the pharmacokinetics of Coenzyme Q10” value ([1]; Arm 1 vs Arm 2 at any of the dose levels)?
The value was “no apparent effect”.

And the “Plasma profiles of Coenzyme Q10, comparison of doses” value ([1]; Arm 2 (chemotherapy combination therapy), first 72 hours of the infusion, distinctly higher during the second 72 hours)?
Its value is “slightly higher for the 274 mg/kg/week dose than for the 220 mg/kg/week dose”.

What about the “Dose Limiting Toxicity” value ([2]; DL4 - 110 mg/kg with Gemcitabine 1,000 mg/m^2 (6 enrolled), two consecutive 72 hour infusions, cell wraps r34-r38: None to Date- need 3 more evaluable patients to determine MTD) of the same molecule?
Its value is “None to Date-”.

What about the “Dose Limiting Toxicity” value ([2]; in vivo) of the same molecule?
The value was “None”.

What about the “Patients who maintained a minimum of Stable Disease for >4 cycles” value (solid tumors) of the same molecule?
Its value is 24%.

What about the “Anemia, Number of Occurrences” value ([3]; Grade 2, 3) of the same molecule?
The value was 38.

What about the “Anemia, Percentage of Occurrences” value ([3]; Grade 2, 3) of the same molecule?
The value was “(15%)”.

What about the “Elevated AST, Number of Occurrences” value ([3]; Grade 2, 3) of the same molecule?
Its value is 14.

And the “Elevated AST, Percentage of Occurrences” value ([3]; Grade 2, 3)?
The value was “(6%)”.

And the “Fatigue, Number of Occurrences” value ([3]; Grade 2, 3)?
Its value is 11.

What about the “Fatigue, Percentage of Occurrences” value ([3]; Grade 2, 3) of the same molecule?
Its value is “(4%)”.

What about the “Elevated PT/PTT/INR, Number of Occurrences” value [3, 4] of the same molecule?
Its value is 67.

And the “Elevated PT/PTT/INR, Percentage of Occurrences” value [3, 4]?
Its value is “(26%)”.

What about the “Thrombocytopenia, Number of Occurrences” value ([3]; Grade 2, 3, 4*) of the same molecule?
The value was 34.

What about the “Thrombocytopenia, Percentage of Occurrences” value ([3]; Grade 2, 3, 4*) of the same molecule?
Its value is “(13%)”.

What about the “Hypertriglyceridemia, Number of Occurrences” value ([3]; Grade 2, 4*) of the same molecule?
The value was 15.

And the “Hypertriglyceridemia, Percentage of Occurrences” value ([3]; Grade 2, 4*)?
Its value is “(6%)”.

And the “Number of grade 3 PT/PTT/INR prolongation events reported” value ([3]; in vivo)?
The value was “Four”.

And the “Most common related adverse events” value ([3]; mitigated after Vitamin K administration)?
Its value is “grade 1-2 prothrombin time (PT)/partial thromboplastin time(PTT)/International Normalized Ratio (INR) prolongation”.

What about the “Serious adverse events not related” value ([3]; of 75 serious events) of the same molecule?
The value was 27.

What about the “Serious adverse events possibly related” value ([3]; of 75 serious events) of the same molecule?
Its value is 8.

What about the “Serious adverse events probably related” value ([3]; of 75 serious events) of the same molecule?
The value was “one”.

And the “Serious adverse events unlikely related” value ([3]; of 75 serious events)?
The value was 38.

What about the “Serious adverse events definitely related” value ([3]; of 75 serious events, activated partial thromboplastin time (APTT) prolonged) of the same molecule?
Its value is “one”.

And the “Number of adverse events reported” value [3, 5]?
Its value is 1503.

What about the “Number of events reported as serious” value [3, 5] of the same molecule?
Its value is 75.
